Laboratory results: publication PMC5562305, “Impact of novel palmitoylated prolactin-releasing peptide analogs on metabolic changes in mice with diet-induced obesity” (PLoS ONE, 2017)
Starred links: 1 amine or outer side, 2 acyl side, 3 side chain; linkers in the order of their positions; H or OH if unused. Residues, ends and D or L forms follow the SMILES beside them. Groups on a side chain read outwards from the residue. *: point of attachment. TTDA(Palmitoyl) = CCCCCCCCCCCCCCCC(=O)NCCCOCCOCCOCCCN*; Suc = O=C(CCC(=O)[*:2])[*:1]

Tested on: urinary metabolites
Assay: NMR-based metabolomics of urine of DIO mice
Type: in vivo, C57BL/6 mice
Design: key to DMA, Mean / DMG, Mean / MA, Mean / TMA, Mean / acetate, Mean / allantoin, Mean / carnitine, Mean / choline, Mean / cis-aconitate, Mean / creatine+creatinine, Mean / creatine, Mean / creatinine, Mean / ethanolamine, Mean / formate, Mean / galactose, Mean / glucose, Mean / glycine, Mean / lactate, Mean / succinate, Mean / vinylacetylglycine, Mean: TSA-normalized intensity of the metabolite's representative NMR signal
Experimental: Urine samples for NMR-based metabolomics were collected prior to the start of the interventions and at the end of the experiment. For overnight urine collection (from 5 pm to 8 am), the mice were housed in individual metabolic cages (Tecniplast, Buguggiate, Italy) without access to food. Samples were collected with the addition of NaN3 and stored at -80°C until NMR analysis.
The urine samples were thawed at room temperature and centrifuged at 13 684 x g for 5 min prior to the NMR experiments. A 200-μl aliquot of supernatant was diluted with 340 μl of H2O mixed with 60 μl of phosphate buffer (1.5 M KH2PO4 in D2O containing 2 mM NaN3 and 0.1% trimethylsilyl propionic acid (TSP), pH 7.4) and transferred to a 5-mm NMR tube. The NMR data were acquired with a 600 MHz Bruker Avance III spectrometer (Bruker BioSpin, Rheinstetten, Germany) equipped with a 5-mm TCI cryogenic probe head. All of the experiments were performed at 300 K. Automatic tuning, matching, shimming and adjusting of the 90° pulse length were performed for each sample.
As mouse urine naturally contains urinary proteins, the NMR spectra were acquired using a Carr-Purcell-Meiboom-Gill (CPMG) pulse sequence with water presaturation (Bruker pulse sequence cpmgpr1d) to eliminate the strong protein background. […] For better metabolite identification, a short J-resolved experiment with presaturation (NS = 2, SW = 16 ppm, TD = 8k, number of increments = 40, SW = 78.125 Hz in the indirect dimension, and relaxation delay = 2 s) was executed for all samples. Additional two-dimensional ^1H-^1H correlation spectroscopy (COSY) and ^1H-^13C heteronuclear multiple-quantum correlation (HMQC) experiments (Bruker pulse sequences cosygpprqf and hmqcphpr) were performed for selected samples.
The acquired data were processed using Topspin 3.2 software (Bruker BioSpin, Rheinstetten, Germany). Line broadening of 0.3 Hz was applied on free induction decays (FIDs) prior to Fourier transformation. The spectra were automatically phased, baseline corrected and referenced to the signal of TSP (0.00 ppm).
The assignment of individual metabolites was achieved by comparing the proton spectra with the spectra of pure metabolites using Chenomx NMR Suite 7.6 (Chenomx Inc., Edmonton, AB, Canada), the HMDB database and previously published metabolomic data. The identification of metabolites was supported through J-resolved and COSY experiments and, if possible, confirmed using carbon chemical shifts extracted from the HMQC spectra.
For quantitation of individual metabolites, the CPMG spectra were uniformly binned in the range of 0.10–10.00 ppm to 0.01-ppm intervals using AMIX software (Bruker BioSpin, Rheinstetten, Germany). This procedure reduced the dimensionality of the data, eliminated chemical shift variations and thus simplified the reproducible automatic quantification. Regions corresponding to water (4.60–4.90 ppm) and urea (5.60–6.00 ppm) were removed prior to analysis. As the dilutions of the original urine samples differed (due to the differences in water intake during urine collection), all of the spectra were normalized to the total spectral area (TSA). For each identified metabolite, one representative signal was chosen and then quantified as the sum of appropriate adjacent 0.01-ppm bins to cover the whole signal width. The metabolite concentration was expressed as the TSA-normalized intensity of the respective signal. For selection of an appropriate statistical method (parametric or non-parametric) the Lilliefors test of normality was performed. […] Metabolite alterations with a P < 0.05 were considered statistically significant. Statistical analysis was performed using Matlab software (“MATLAB version 8.6 (R2015b). Natick, Massachusetts: The MathWorks Inc., 2015.,” n.d.). […]

[1] = urine NMR signal, DIO mice, group mean
[2] = urine of DIO mice, NMR metabolomics, difference of analog mean vs saline mean

CCCCCCCCCCCCCCCC(=O)NCCCOCCOCCOCCCNC(=O)CCC(=O)NCCCC[C@H](NC(=O)[C@@H](NC(=O)[C@H](CCC(=O)O)NC(=O)[C@H](CCSC)NC(=O)[C@H](CO)NC(=O)[C@H](Cc1c[nH]cn1)NC(=O)[C@H](CCCNC(=N)N)NC(=O)[C@H](Cc1c[nH]cn1)NC(=O)[C@@H](NC(=O)[C@H](CCCNC(=N)N)NC(=O)[C@H](CO)NC(=O)CCC(=O)NCCCOCCOCCOCCCNC(=O)CCCCCCCCCCCCCCC)[C@@H](C)O)[C@@H](C)CC)C(=O)N[C@H](C(=O)N1CCC[C@H]1C(=O)N[C@@H](CC(=O)O)C(=O)N[C@H](C(=O)N[C@@H](CC(N)=O)C(=O)N1CCC[C@H]1C(=O)N[C@@H](C)C(=O)N[C@@H](Cc1c[nH]c2ccccc12)C(=O)N[C@@H](Cc1ccc(O)cc1)C(=O)N[C@@H](C)C(=O)N[C@@H](CO)C(=O)N[C@@H](CCCNC(=N)N)C(=O)NCC(=O)N[C@H](C(=O)N[C@@H](CCCNC(=N)N)C(=O)N1CCC[C@H]1C(=O)N[C@H](C(=O)NCC(=O)N[C@@H](CCCNC(=N)N)C(=O)N[C@@H](Cc1ccccc1)C(N)=O)C(C)C)[C@@H](C)CC)[C@@H](C)CC)[C@@H](C)O [analog 3] ({TTDA(Palmitoyl)-Suc}-SRTHRHSMEIK([Suc-TTDA(Palmitoyl)])TPDINPAWYASRGIRPVGRF-NH2)
2-OG (2.45 ppm), Mean [1]: 11.878
2-OG (3.01 ppm), Mean [1]: 10.469
2-PY (8.33 ppm), Mean [1]: 1.098
3-indoxylsulfate (7.51 ppm), Mean [1]: 1.344
3-indoxylsulfate (7.71 ppm), Mean [1]: 0.810
4-PY (7.97 ppm), Mean [1]: 2.017
4-PY (8.55 ppm), Mean [1]: 0.633
DMA, Mean [1]: 5.618
DMG, Mean [1]: 1.853
MA, Mean [1]: 3.016
MNA (8.90 ppm), Mean [1]: 0.487
MNA (8.97 ppm), Mean [1]: 0.470
MNA (9.265 ppm), Mean [1]: 0.490
MNA-Nox (7.75 ppm), Mean [1]: 0.972
MNA-Nox (8.13 ppm), Mean [1]: 0.792
MNA-Nox (8.49 ppm), Mean [1]: 0.511
MNA-Nox (8.75 ppm), Mean [1]: 0.485
N-carbamoylalanine (2.38 ppm), Mean [1]: 11.854
N-carbamoylalanine (3.31 ppm), Mean [1]: 9.499
N-isovalerylglycine + oxovalerate (0.92 ppm), Mean [1]: 16.056
TMA, Mean [1]: 11.780
acetate, Mean [1]: 3.429
allantoin, Mean [1]: 22.447
carnitine, Mean [1]: 6.067
choline, Mean [1]: 1.970
cis-aconitate, Mean [1]: 8.481
citrate (2.55 ppm), Mean [1]: 29.434
citrate (2.69 ppm), Mean [1]: 26.220
creatine+creatinine, Mean [1]: 24.904
creatine, Mean [1]: 7.343
creatinine, Mean [1]: 11.686
ethanolamine, Mean [1]: 8.370
formate, Mean [1]: 0.199
fumarate, Mean [1]: 0.151
galactose, Mean [1]: 0.578
glucose, Mean [1]: 3.207
glycine, Mean [1]: 5.874
hexanoylglycine + acids (0.88 ppm), Mean [1]: 15.361
hippurate (7.55 ppm), Mean [1]: 3.987
hippurate (7.64 ppm), Mean [1]: 2.057
hippurate (7.84 ppm), Mean [1]: 4.311
lactate, Mean [1]: 6.853
multiplet acids (1.6 ppm), Mean [1]: 12.521
putrescin, Mean [1]: 8.726
succinate, Mean [1]: 9.267
taurine (3.27 ppm), Mean [1]: 24.146
taurine (3.43 ppm), Mean [1]: 20.508
trigonelline (8.84 ppm), Mean [1]: 0.263
trigonelline (9.13 ppm), Mean [1]: 0.106
vinylacetylglycine, Mean [1]: 3.527
2-OG (2.45 ppm), Saline/analog % [2]: 0.010%
2-OG (3.01 ppm), Saline/analog % [2]: 0.022%
2-PY (8.33 ppm), Saline/analog % [2]: -0.056%
3-indoxylsulfate (7.51 ppm), Saline/analog % [2]: 0.032%
3-indoxylsulfate (7.71 ppm), Saline/analog % [2]: 0.052%
4-PY (7.97 ppm), Saline/analog % [2]: 0.115%
4-PY (8.55 ppm), Saline/analog % [2]: 0.091%
DMA, Saline/analog % [2]: 0.119%
N-carbamoylalanine (2.38 ppm), Saline/analog % [2]: 0.101%
N-carbamoylalanine (3.31 ppm), Saline/analog % [2]: 0.00116%
N-isovalerylglycine + oxovalerate (0.92 ppm), Saline/analog % [2]: 0.108%
TMA, Saline/analog % [2]: -0.031%
acetate, Saline/analog % [2]: -0.087%
allantoin, Saline/analog % [2]: 0.112%
carnitine, Saline/analog % [2]: 0.019%
choline, Saline/analog % [2]: -0.000203%
cis-aconitate, Saline/analog % [2]: -0.045%
citrate (2.55 ppm), Saline/analog % [2]: -0.096%
citrate (2.69 ppm), Saline/analog % [2]: -0.120%
creatine+creatinine, Saline/analog % [2]: 0.092%
